Measurements taken from patent US4436753A, “Method for therapy of ischemic disease” (Takeda Chemical Industries, Ltd., priority 1979, dated 1984).

Tests used:
[1] = test system: bovine heart mitochondria deactivated by treatment with acetone (succinate oxidase activity); experiment: Mitochondrial respiration activating effect (succinate oxidase oxygen consumption); format: biochemical; conditions: 5 n mole added; 23° C.; succinate substrate; acetone-treated mitochondria
Experimental: The effect of activating the respiration of bovine heart mitochondria deactivated by treatment with acetone was evaluated by the method of Lester and Fleischer (Biochim. Biophys. Acta, vol. 113, p. 519, 1966). The respiration activating effect was expressed in terms of oxygen consumption due to succinate oxidase activity, succinic acid being the substrate.
*The rate was measured at 23° C. using an oxygen electrode
apparatus (Gilson's model KIC). Composition of the reaction medium (2 ml)
0.2 M sucrose, 10 mM Trishydrochloric acid (pH 7.4), 20 mM KCl, 3 mM
MgCl2, 50 μM EDTA.2Na, 1.99 mg (as protein) acetonetreated
mitochondria, 50 μM potassium succinate, 0.2 mg cytochrome C, and 5
μl 1% Nikkol OP10 ® (polyoxyethylene octylphenyl ether; Produced b
Nikko Chemicals) solution of the test sample (in the case of the test
sample) or 5 μl 1% Nikkol OP10 ® (Polyoxyethylene octylphenyl
ether; Produced by Nikko Chemicals) (in the case of the control).

SHRSP [2] = experiment: Cerebral ischemia-protecting effect, carotid artery ligated on both sides; format: in vivo, rat
Text: Spontaneously hypertensive rats showing a strong tendency to cerebral apoplexy (hereinafter abbreviated to SHRSP) (Okamoto et al., Circulation Res., vol. 34-35, pp. 1-143, 1974), were newly established in 1974. When the carotid artery is ligated on both sides, apoplectic symptoms such as convulsion fit, respiratory distress and coma, which lead to death (the incidence being 100%), are observed.
The time to the manifestation of the symptoms and the time to death were prolonged also by the administration of 100 mg/kg for 3 days or 35 mg/kg for 14 days.

SHRSP [3] = experiment: Cerebral apoplexy preventing effect; format: in vivo, rat
Experimental: The SHRSP, fed with high sodium chloride level, are liable to develop cerebral apoplexy (cerebral hemorrhage or hemorrhagic infarction) with high incidence. The compound of the invention (I, n=10) was administered in admixture with the diet to a group of 12 male SHRSP.
^1 8week-old male SHRSP
^2 14week-old male SHRSP
^3 Number of apoplectic cases/number of animals used.

SHRSP [4] = experiment: Improving effect on symptoms of cerebral apoplexy; format: in vivo, rat; conditions: 100 mg/kg/day oral, 21 days after first symptom
Text: SHRSP's were fed under sodium chloride loading as in Example 3. Upon manifestation of the first symptom, the sodium chloride loading was discontinued and at the same time oral administration of the compound of the invention (I, n=10) was commenced. After administration for 3 weeks, the dosed group was compared with the control group in respect of the severity of the symptoms. The severity was scored (0 for no symptoms to 5 for the severest) for each individual and the results were expressed in terms of the total score for the respective group. As shown by the results set forth in Table 4, the administration of the compound of the present invention alleviated the clinical symptoms after manifestation of the apoplexy. The body weight loss after the apoplexy was also depressed.

SHRSP [5] = experiment: Antihypertensive action; format: in vivo, rat; conditions: 35 mg/kg daily oral
Text: | ^1 Each group consisted of 12 animals.

normal rat = experiment: Preventing effect against development of malignant hypertension (unilateral kidney excision, desoxycorticosterone acetate, 1% sodium chloride); format: in vivo; conditions: 50 mg/kg oral twice a day
Experimental: The kidney of each normal rat was unilaterally excised, and desoxycorticosterone acetate (10 mg/kg) was administered subcutaneously once a week. The rats were given a 1% aqueous sodium chloride solution as drinking water. On the day of operation and thereafter, the compound of the invention (I, n=10) was orally administered at a dose of 50 mg/kg twice a day, and the above indexes of aggravation were determined.

normal rats = experiment: Protecting effect against heart failure (Adriamycin-induced), normal rats; format: in vivo, rat; conditions: Adriamycin 1 mg/kg/day i.p., compound 10 mg/kg/day oral, 10 days
Experimental: Adriamycin (1 mg/kg/day) was intraperitoneally administered to normal rats and, after 2 weeks, the compound of the invention (I, n=10) (10 mg/kg/day) was orally administered, and the cardiac functional state was examined electrocardiographically and biochemically. […] In addition, the tissue lactic acid level, an index of myocardinal energy state, was lowered.

[6] = test system: Spontaneously hypertensive rats; experiment: Protecting effect against heart failure (drug-induced cardiac insufficiency), spontaneously hypertensive rats; format: in vivo, rat; conditions: administration period 10 days
[7] = 2-week oral repeated dose toxicity (Reference Example 8); format: in vivo; conditions: gum arabic suspension, 100 mg/kg or 500 mg/kg daily for 2 weeks
Experimental: The compound of the present invention (I, n=10) was suspended in a gum arabic solution and oraly administered consecutively for 2 weeks at a daily dose of 100 mg/kg or 500 mg/kg, and examination of general condition, urinalysis and blood examination were carried out during the course of administration. Histopathology was done at the termination of the administration.

[8] = Experiment 2, 100 mg/kg/day, 3 days
[9] = Experiment 3, 35 mg/kg/day, 14 days

## COC1=C(OC)C(=O)C(CCCCCCCCCCO)=C(C)C1=O [I (n = 10), 2,3-dimethoxy-5-methyl-6-(10-hydroxydecyl)-1,4-benzoquinone]
[1]
  Oxygen consumption rate: 45.0 ± 3.7 Oxygen (n atom)/minute/mg prot
SHRSP [2]; Experiment 1, 15 mg/kg/day oral, 21 days
  Time to convulsion fit: 119 ± 13 min
SHRSP [2]; [8]
  Time to convulsion fit: 117 ± 15 min
  Time to death: 235 ± 27 min
SHRSP [2]; [9]
  Time to convulsion fit: 93 ± 14 min
  Time to death: 242 ± 29 min
SHRSP [3]; 10 SHRSP fed without sodium chloride loading
  Spontaneous manifestation of cerebral apoplexy (in words): can prevent manifestation of cerebral apoplexy
SHRSP [3]; Experiment 1, sodium chloride loading +, 35 mg/kg/day in diet, 40 days, 8-week-old male SHRSP
  Incidence of cerebral apoplexy (number of apoplectic cases/number of animals used): 7/12
SHRSP [3]; Experiment 2, no sodium chloride loading, 35 mg/kg/day, 45 days, 14-week-old male SHRSP
  Incidence of cerebral apoplexy (number of apoplectic cases/number of animals used): 5/10
SHRSP [3]; SHRSP fed with high sodium chloride level, compound in admixture with the diet, 12 male SHRSP
  Cerebral apoplexy compared with the control group (in words): significantly (P<0.05 by Wilcoxon's two sample test) inhibited
SHRSP [4]
  Body weight loss: 8 ± 3%
  Severity of symptoms (total score of group; 0 to 5 per individual): 20 ± 3
SHRSP [5]; day 0
  Blood pressure: 175 ± 3 mmHg
SHRSP [5]; day 7
  Blood pressure: 188 ± 4 mmHg
SHRSP [5]; day 14
  Blood pressure: 199 ± 3 mmHg
SHRSP [5]; day 21
  Blood pressure: 208 ± 4 mmHg
Normal rat; day 0
  Body weight: 224 ± 4 g
  Urine protein: 47 ± 1 mg/day/250 g body weight
Normal rat; day 14
  Body weight: 269 ± 8 g
  Urine protein: 225 ± 38 mg/day/250 g body weight
Normal rat; day 21
  Body weight: 274 ± 13 g
  Urine protein: 367 ± 68 mg/day/250 g body weight
Normal rats
  Heart lactic acid on wet weight basis: 1.65 ± 0.1 µmol/g
  QRS width: 4.6 ± 0.4 ms
[6]
  Heart lactic acid on wet weight basis: 1.9 ± 0.12 µmol/g
  QRS width: 2.9 ± 0.2 ms
[7]
  Abnormalities (general condition, urinalysis, blood examination, histopathology): could not reveal any abnormalities ascribable to the administration

## COC1=C(OC)C(=O)C(CCCCCCCCCCCCCCCCCCO)=C(C)C1=O [I (n = 18), 6-(18-hydroxyoctadecyl)-2,3-dimethoxy-5-methyl-1,4-benzoquinone]
[1]
  Oxygen consumption rate: 44.5 ± 3.2 Oxygen (n atom)/minute/mg prot
